Results reported in patent publication US8273775B2, “Non-steroidal brassinosteroid mimetic” (priority 2006, dated 2012).

System: gene expression in Col-0 seedling shoots
Test: Microarray analysis (ATH1 Affymetrix) after BL or abrasin treatment
Format: in vivo, Arabidopsis
Method: FIG. 14: Clustering of gene expression profiles by QT-clust analysis. Clusters illustrating the major patterns of the data sets. Points: BIK-30: 30 μM abrasin 30 min; BL-30: 1 μM brassinolide 30 min; DMSO-30: control DMSO 30 min; BIK-120: 30 μM abrasin 120 min; BL-120: 1 μM brassinolide 120 min; DMSO-120: control DMSO 120 min.
Col-0 seeds were germinated vertically on ½ MS medium for 7 days under 16 h light/8 h dark cycles. The seedlings were overlaid with liquid ½ MS medium containing 1 μM brassinolide (BL, Fuji Chemical Industries, Ltd., Toyama, Japan), 30 μM abrasin (BIK, ChemBridge Corporation) and DMSO and treated for 30 and 120 min. The shoot parts were collected for RNA isolation. All sampling points were performed in three independent experiments. RNA was extracted using RNeasy kit (Qiagene). […] total RNA per array was used to hybridise the ATH1 Affymetrix Arabidopsis arrays according to standard procedure. The overrepresentation analyses were performed using BiNGO software (Maere et al., 2005).
We performed a microarray analysis using the Arabidopsis whole genome chip (Affymetix) to determine whether abrasin activated the expression of BR-inducible genes at transcriptional level. Wild-type Col-0 seedlings were exposed to 1 μM BL, 30 μM ABRASIN and DMSO (mock-treatment) for two time points (30 min and 120 min) and the shoot parts were collected for RNA isolation. The analysis of the variance of the normalized gene expression data took in account the variability parameters affecting the expression level: type of hormone treatment, duration of treatment and the interaction between these two.

## O=C(O)CCC(=O)Nc1ccc(Br)cn1 [abrasin, 4-[(5-bromo-2-pyridinyl)amino]-4-oxobutanoic acid]
1 μM BL, 30 μM ABRASIN
  expression of BR biosynthesis genes (CPD, DWF4, BR6OX2), Cluster 1: down-regulated
  expression of WRKY transcription factors, DOF-type proteins, lectin receptor-like kinases, U-box proteins, HAESA: induces the expression
  expression of genes involved in the auxin pathway (IAA29, IAA2): significantly down-regulated
1 μM BL, 30 μM ABRASIN, 30 and 120 min
  induction of early auxin-inducible SAUR family genes, Cluster 3: had an effect only after 2 hours
30 min
  Fold-change AT1G04330 expressed protein: 1.17
  Fold-change AT1G05470 endonuclease/exonuclease/phosphatase family protein: 1.42
  Fold-change AT1G06520 Encodes a membrane associated mitochondrial localized protein: 1.26
  Fold-change AT1G06570 4-hydroxyphenylpyruvate dioxygenase (HPD): 0.91
  Fold-change AT1G10550 xyloglucan:xyloglucosyl transferase: 1.26
  Fold-change AT1G12710 F-box family protein: 0.88
  Fold-change AT1G12750 rhomboid family protein: 1.46
  Fold-change AT1G14130 2-oxoglutarate-dependent dioxygenase: 1.10
  Fold-change AT1G14700 purple acid phosphatase: 0.53
  Fold-change AT1G16640 transcriptional factor B3 family protein: 1.14
  Fold-change AT1G17230 leucine-rich repeat family protein: 1.09
  Fold-change AT1G18020; AT1G17990 [AT1G18020, 12-oxophytodienoate reductase,: 1.31
  Fold-change AT1G19320 pathogenesis-related thaumatin family protein: 0.52
  Fold-change AT1G20350 mitochondrial import inner membrane translocase subunit: 1.00
  Fold-change AT1G21050 expressed protein: 0.32
  Fold-change AT1G21760 F-box family protein: 0.76
  Fold-change AT1G22360 UDP-glucoronosyl/UDP-glucosyl transferase family protein: 0.82
  Fold-change AT1G23080 auxin efflux carrier protein (PIN7): 0.81
  Fold-change AT1G26800 zinc finger (C3HC4-type RING finger) family protein,: 1.07
  Fold-change AT1G27730 zinc finger (C2H2 type) family protein: 0.56
  Fold-change AT1G28130 encodes an IAA-amido synthase: 0.64
  Fold-change AT1G28190 expressed protein: 2.79
  Fold-change AT1G28480 glutaredoxin family protein: 1.02
  Fold-change AT1G31040 zinc-binding protein-related: 1.35
  Fold-change AT1G31310 hydroxyproline-rich glycoprotein family protein: 1.17
  Fold-change AT1G31770 ABC transporter family protein: 0.91
  Fold-change AT1G32190 expressed protein: 0.73
  Fold-change AT1G32690 expressed protein: 0.38
  Fold-change AT1G36940 expressed protein: 0.45
  Fold-change AT1G49780 U-box domain-containing protein: 0.71
  Fold-change AT1G53870; AT1G53890 [AT1G53870, expressed protein: 0.43
  Fold-change AT1G54050 17.4 kDa class III heat shock protein (HSP17.4-CIII): 1.16
  Fold-change AT1G54200 expressed protein: 1.26
  Fold-change AT1G55920 serine O-acetyltransferase: 2.19
  Fold-change AT1G57560 myb family transcription factor (MYB50): 1.19
  Fold-change AT1G59590 expressed protein: 1.99
  Fold-change AT1G59660 nucleoporin family proteinmily: 1.45
  Fold-change AT1G62300 WRKY family transcription factor: 1.58
  Fold-change AT1G63050 membrane bound O-acyl transferase (MBOAT) family protein: 0.75
  Fold-change AT1G66160 U-box domain-containing protein,: 2.03
  Fold-change AT1G66890 expressed protein: 0.65
  Fold-change AT1G68330 expressed protein: 1.76
  Fold-change AT1G68810 basic helix-loop-helix (bHLH) family protein: 0.80
  Fold-change AT1G69160 expressed protein: 0.67
  Fold-change AT1G70990 proline-rich family protein: 1.70
  Fold-change AT1G71030 Encodes a putative myb family transcription factor: 0.92
  Fold-change AT1G72060 expressed protein: 2.19
  Fold-change AT1G72180 leucine-rich repeat transmembrane protein kinase: 0.54
  Fold-change AT1G72800 nuM1-related, contains: 1.15
  Fold-change AT1G75270 dehydroascorbate reductase: 1.16
  Fold-change AT1G75500 nodulin MtN21 family protein: 0.67
  Fold-change AT1G76240 expressed protein,: 0.40
  Fold-change AT1G76410 zinc finger (C3HC4-type RING finger): 0.54
  Fold-change AT1G79110 expressed protein: 0.66
  Fold-change AT1G79630 protein phosphatase 2C family protein: 0.62
  Fold-change AT1G80440 kelch repeat-containing F-box family protein: 1.36
  Fold-change AT2G01300 expressed protein: 0.73
  Fold-change AT2G01990 expressed protein,: 1.89
  Fold-change AT2G04240 zinc finger (C3HC4-type RING finger) family protein: 0.77
  Fold-change AT2G05540 glycine-rich protein: 0.71
  Fold-change AT2G12290; AT4G19700 [AT2G12290, expressed protein]; [AT4G19700, expressed protein]: 0.38
  Fold-change AT2G18010 auxin-responsive family protein (SAUR10): 1.35
  Fold-change AT2G19800 expressed protein: 2.29
  Fold-change AT2G22860 phytosulfokines 2 (PSK2): 0.68
  Fold-change AT2G23180 cytochrome P450, putative: 0.67
  Fold-change AT2G23320 WRKY family transcription factor: 1.41
  Fold-change AT2G26530 expressed protein: 1.24
  Fold-change AT2G26710 cytochrome p450 family (BAS1): 0.72
  Fold-change AT2G28510 Dof-type zinc finger domain-containing protein: 1.28
  Fold-change AT2G29340 short-chain dehydrogenase/reductase (SDR) family protein: 1.55
  Fold-change AT2G29990 pyridine nucleotide-disulphide oxidoreductase family protein: 1.43
  Fold-change AT2G30070 potassium transporter (KUP1): 0.61
  Fold-change AT2G31230 encodes a member of the ERF (ethylene response factor): 2.13
  Fold-change AT2G34650 protein kinase PINOID (PID): 1.04
  Fold-change AT2G36220 expressed protein: 1.10
  Fold-change AT2G37590 Dof-type zinc finger domain-containing protein: 1.52
  Fold-change AT2G38470 WRKY family transcription factor: 2.02
  Fold-change AT2G39710 aspartyl protease family protein: 2.42
  Fold-change AT2G40340; AT2G40350 [AT2G40340, encodes a member of the DREB subfamily A-2 of ERF/AP2: 1.40
  Fold-change AT2G41250 haloacid dehalogenase-like hydrolase family protein: 0.82
  Fold-change AT2G41640 expressed protein: 1.96
  Fold-change AT2G42280 basic helix-loop-helix (bHLH) family protein: 0.67
  Fold-change AT2G43060 expressed protein, similar to cDNA bHLH transcription factor: 0.31
  Fold-change AT2G43280 far-red impaired responsive family protein: 0.78
  Fold-change AT2G43290 calmodulin-like protein (MSS3): 0.81
  Fold-change AT2G44130 kelch repeat-containing F-box family protein: 1.13
  Fold-change AT2G44500 expressed protein: 1.26
  Fold-change AT2G45210 auxin-responsive protein-related: 0.34
  Fold-change AT2G45680 TCP family transcription factor: 0.50
  Fold-change AT2G46225 Encodes a subunit of the WAVE complex: 1.15
  Fold-change AT2G47440 DNAJ heat shock N-terminal domain-containing protein: 1.07
  Fold-change AT3G04210 disease resistance protein (TIR-NBS class), putative,: 2.18
  Fold-change AT3G09920 phosphatidylinositol-4-phosphate 5-kinase family protein: 1.56
  Fold-change AT3G12920 expressed protein: 0.45
  Fold-change AT3G13040 myb family transcription factor: 0.93
  Fold-change AT3G13510 expressed protein: 0.85
  Fold-change AT3G13980 expressed protein: 0.25
  Fold-change AT3G14370 protein kinase family protein: 1.10
  Fold-change AT3G14560 expressed protein: 0.59
  Fold-change AT3G16570 rapid alkalinization factor (RALF) family protein: 0.54
  Fold-change AT3G17860 expressed protein: 0.78
  Fold-change AT3G18830 polyol/cyclitol/monosaccharide-H+-symporte: 1.64
  Fold-change AT3G19380 U-box domain-containing protein: 0.67
  Fold-change AT3G23030 auxin-responsive protein/indoleacetic acid-induced protein 2 (IAA2): 0.55
  Fold-change AT3G23550 MATE efflux family protein: 0.67
  Fold-change AT3G25710 basic helix-loop-helix (bHLH) family protein: 0.48
  Fold-change AT3G25900 homocysteine S-methyltransferase 1 (HMT-1): 1.32
  Fold-change AT3G26910 hydroxyproline-rich glycoprotein family protein: 2.49
  Fold-change AT3G30180 cytochrome p450 enzyme: 0.09
  Fold-change AT3G46880 expressed protein,: 1.50
  Fold-change AT3G47800 aldose 1-epimerase family protein: 0.91
  Fold-change AT3G48970 copper-binding family protein: 0.40
  Fold-change AT3G49810 U-box domain-containing protein: 1.29
  Fold-change AT3G50650 scarecrow-like transcription factor 7 (SCL7): 1.51
  Fold-change AT3G50660 steroid 22-alpha-hydroxylase (CYP90B1) (DWF4): 0.47
  Fold-change AT3G50750 brassinosteroid signalling positive regulator-related (BEH1): 0.63
  Fold-change AT3G52490 heat shock protein-related: 1.17
  Fold-change AT3G53810 lectin protein kinase: 2.28
  Fold-change AT3G54950 patatin-related,: 0.58
  Fold-change AT3G55120 chalcone-flavanone isomerase: 0.94
  Fold-change AT3G55150 exocyst subunit EXO70 family protein: 3.44
  Fold-change AT3G55840 expressed protein: 1.05
  Fold-change AT3G61460 zinc finger (C3HC4-type RING finger) family protein (BRH1): 0.43
  Fold-change AT3G63300 expressed protein: 1.26
  Fold-change AT4G01680 myb family transcription factor (MYB55): 0.21
  Fold-change AT4G02410 lectin protein kinase family protein: 2.60
  Fold-change AT4G08040 1-aminocyclopropane-1-carboxylate synthase, putative: 0.08
  Fold-change AT4G09460 myb family transcription factor: 1.50
  Fold-change AT4G12390 invertase/pectin methylesterase inhibitor family protein: 0.75
  Fold-change AT4G12410 auxin-responsive family protein: 0.66
  Fold-change AT4G14130 xyloglucan:xyloglucosyl transferase: 0.37
  Fold-change AT4G15975 zinc finger (C3HC4-type RING finger) family protein: 2.33
  Fold-change AT4G16146 expressed protein: 0.91
